Results reported in the NIST ThermoML archive (doi:10.1021/je900550v).
Numbers after ± are expanded uncertainties.

Details: 101.33 kPa, Liquid; for speed of sound: Pulse-echo method; for mass density: Vibrating tube method

CC(C)C(=O)[O-].C[NH2+]CCO [2-hydroxy-N-methylethanaminium isobutyrate]
Details | mass density [kg/m3] | speed of sound [m/s] | viscosity [mPa·s]
323.15 K | – | – | 47.96 ± 1.4
323.16 K | 1027.03 ± 2.2 | 1540.6 ± 2.1 | –
323.41 K | 1026.86 ± 2.2 | 1539.9 ± 2.1 | –
323.65 K | 1026.69 ± 2.2 | 1539.2 ± 2.1 | –
323.91 K | 1026.53 ± 2.2 | 1538.5 ± 2.1 | –
324.16 K | 1026.36 ± 2.2 | 1537.7 ± 2.1 | –
324.41 K | 1026.19 ± 2.2 | 1537 ± 2.1 | –
324.65 K | 1026.03 ± 2.2 | 1536.3 ± 2.1 | –
324.9 K | 1025.86 ± 2.2 | 1535.6 ± 2.1 | –
325.16 K | 1025.69 ± 2.2 | 1534.9 ± 2.1 | –
325.4 K | 1025.52 ± 2.2 | 1534.2 ± 2.1 | –
325.66 K | 1025.36 ± 2.2 | 1533.5 ± 2.1 | –
325.9 K | 1025.19 ± 2.2 | 1532.8 ± 2.1 | –
326.16 K | 1025.02 ± 2.2 | 1532.1 ± 2.1 | –
326.41 K | 1024.85 ± 2.2 | 1531.4 ± 2.1 | –
326.66 K | 1024.68 ± 2.2 | 1530.7 ± 2.1 | –
326.9 K | 1024.52 ± 2.2 | 1529.9 ± 2.1 | –
327.16 K | 1024.34 ± 2.2 | 1529.2 ± 2.1 | –
327.4 K | 1024.18 ± 2.2 | 1528.5 ± 2.1 | –
327.66 K | 1024.01 ± 2.2 | 1527.8 ± 2.1 | –
327.9 K | 1023.84 ± 2.2 | 1527.1 ± 2.1 | –
328.15 K | 1023.67 ± 2.2 | 1526.4 ± 2.1 | –
328.41 K | 1023.5 ± 2.2 | 1525.7 ± 2.1 | –
328.66 K | 1023.33 ± 2.2 | 1524.9 ± 2.1 | –
328.9 K | 1023.16 ± 2.2 | 1524.2 ± 2.1 | –
329.16 K | 1022.99 ± 2.2 | 1523.5 ± 2.1 | –
329.4 K | 1022.82 ± 2.2 | 1522.8 ± 2.1 | –
329.65 K | 1022.65 ± 2.2 | 1522 ± 2.1 | –
329.9 K | 1022.48 ± 2.2 | 1521.3 ± 2.1 | –
330.16 K | 1022.32 ± 2.2 | 1520.6 ± 2.1 | –
330.41 K | 1022.14 ± 2.2 | 1519.9 ± 2.1 | –
330.66 K | 1021.98 ± 2.2 | 1519.1 ± 2.1 | –
330.91 K | 1021.81 ± 2.2 | 1518.4 ± 2.1 | –
331.16 K | 1021.63 ± 2.2 | 1517.7 ± 2.1 | –
331.41 K | 1021.47 ± 2.2 | 1517 ± 2.1 | –
331.66 K | 1021.29 ± 2.2 | 1516.2 ± 2.1 | –
331.91 K | 1021.13 ± 2.2 | 1515.5 ± 2.1 | –
332.16 K | 1020.95 ± 2.2 | 1514.8 ± 2.1 | –
332.41 K | 1020.78 ± 2.2 | 1514.1 ± 2.1 | –
332.66 K | 1020.61 ± 2.2 | 1513.4 ± 2.1 | –
332.91 K | 1020.44 ± 2.2 | 1512.7 ± 2.1 | –
333.16 K | 1020.27 ± 2.2 | 1511.9 ± 2.1 | –
333.41 K | 1020.1 ± 2.2 | 1511.2 ± 2.1 | –
333.66 K | 1019.93 ± 2.2 | 1510.5 ± 2.1 | –
333.91 K | 1019.76 ± 2.2 | 1509.8 ± 2.1 | –
334.16 K | 1019.59 ± 2.2 | 1509.1 ± 2.1 | –
334.41 K | 1019.42 ± 2.2 | 1508.3 ± 2.1 | –
334.66 K | 1019.24 ± 2.2 | 1507.6 ± 2.1 | –
334.91 K | 1019.07 ± 2.2 | 1506.9 ± 2.1 | –
335.16 K | 1018.9 ± 2.2 | 1506.2 ± 2.1 | –
335.41 K | 1018.73 ± 2.2 | 1505.5 ± 2.1 | –
335.66 K | 1018.56 ± 2.2 | 1504.7 ± 2.1 | –
335.91 K | 1018.38 ± 2.2 | 1504 ± 2.1 | –
336.16 K | 1018.22 ± 2.2 | 1503.3 ± 2.1 | –
336.41 K | 1018.04 ± 2.2 | 1502.6 ± 2.1 | –
336.66 K | 1017.87 ± 2.2 | 1501.9 ± 2.1 | –
336.9 K | 1017.7 ± 2.2 | 1501.2 ± 2.1 | –
337.16 K | 1017.53 ± 2.2 | 1500.4 ± 2.1 | –
337.4 K | 1017.35 ± 2.2 | 1499.7 ± 2.1 | –
337.66 K | 1017.18 ± 2.2 | 1499 ± 2.1 | –
337.9 K | 1017.01 ± 2.2 | 1498.3 ± 2.1 | –
338.15 K | 1016.84 ± 2.2 | 1497.7 ± 2.1 | –
